# Experimental data taken from US8207172B2 (Bayer Intellectual Property GmbH, priority 2004, dated 2012).
# Counter-ions that a name gives are not always drawn.
# Experiments:
# [1] = system: BT474 (human breast carcinoma); test: In vitro tumor cell proliferation assay (Cell Titer-Glo luminescent cell viability), BT474; type: cell-based; details: BT-474, 72 h, BT474 cells, 72 hours of drug exposure, ATP luminescence readout, read-out: IC50, anti-proliferative activity (inhibition of cell proliferation)
# Outline: (§1)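 A431 or BT474 cells were exposed 72 h at 37°C to serially diluted compounds (final 100 μM down to 64 pM, 0.1% DMSO). Viable cells were read by ATP luminescence (CellTiter-Glo) and IC50 values derived.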
# [2] = system: A431 cells (human epidermoid carcinoma); test: In vitro tumor cell proliferation assay (Cell Titer-Glo luminescent cell viability), A431; type: cell-based; details: A-431, 72 h, 72 hours of drug exposure, ATP luminescence readout, read-out: IC50, anti-proliferative activity (inhibition of cell proliferation)
# Outline: as §1
Structure (SMILES),IC50 [1] [µM],IC50 [2] [µM]
"OC[C@H]1CCCN1CCn1cc2c(n1)CCc1c-2sc2ncnc(Nc3ccc(F)c(Cl)c3)c12 [Example 29, [(2R)-1-(2-{6-[(3-chloro-4-fluorophenyl)amino]-4,5-dihydro-2H-pyrimido[5′,4′:4,5]thieno[2,3-e]indazol-2-yl}ethyl)pyrrolidin-2-yl]methanol]",≤ 5,≤ 5
"CN1CCN(CCn2cc3c(n2)CCc2c-3sc3ncnc(Nc4cc(Cl)c(Cl)cc4F)c23)CC1 [Example 344, N-(4,5-dichloro-2-fluorophenyl)-2-[2-(4-methylpiperazin-1-yl)ethyl]-4,5-dihydro-2H-pyrimido[5′,4′:4,5]thieno[2,3-e]indazol-6-amine trifluoroacetate]",≤ 5,≤ 5
"OCCNC[C@@H](O)Cn1cc2c(n1)CCc1c-2sc2ncnc(Nc3ccc(OCc4cccc(F)c4)c(Cl)c3)c12 [Example 151, (2R)-1-[6-({3-chloro-4-[(3-fluorobenzyl)oxy]phenyl}amino)-4,5-dihydro-2H-pyrimido[5′,4′:4,5]thieno[2,3-e]indazol-2-yl]-3-[(2-hydroxyethyl)amino]propan-2-ol trifluoroacetate (salt)]",≤ 1,≤ 50
"CN(C)[C@H]1CCN(CCn2cc3c(n2)CCc2c-3sc3ncnc(Nc4ccc(F)c(Cl)c4)c23)C1 [Example 2, N-(3-chloro-4-fluorophenyl)-2-{2-[(3S)-3-(dimethylamino)pyrrolidin 1-yl]ethyl}-4,5-dihydro-2H-pyrimido[5′,4′:4,5]thieno[2,3-e]indazol-6-amine]",≤ 1,≤ 5
"COC[C@H]1CCCN1CCn1cc2c(n1)CCc1c-2sc2ncnc(Nc3ccc(F)c(Cl)c3)c12 [Example 28, N-(3-chloro-4-fluorophenyl)-2-{2-[(2R)-2-(methoxymethyl)pyrrolidin-1-yl]ethyl}-4,5-dihydro-2H-pyrimido[5′,4′:4,5]thieno[2,3-e]indazol-6-amine]",≤ 5,≤ 5
"OCCn1cc2c(n1)CCc1c-2sc2ncnc(Nc3ccc(OCc4cccc(F)c4)c(Cl)c3)c12 [Example 56, 2-[6-({3-chloro-4-[(3-fluorobenzyl)oxy]phenyl}amino)-4,5-dihydro-2H-pyrimido[5′,4′:4,5]thieno[2,3-e]indazol-2-yl]ethanol]",≤ 1,≤ 5
"Fc1cccc(COc2ccc(Nc3ncnc4sc5c(c34)CCc3nn(CCNCCN4CCOCC4)cc3-5)cc2Cl)c1 [Example 68, N-{3-chloro-4-[(3-fluorobenzyl)oxy]phenyl}-2-{2-[(2-morpholin-4-ylethyl)amino]ethyl}-4,5-dihydro-2H-pyrimido[5′,4′:4,5]thieno[2,3-e]indazol-6-amine]",≤ 1,≤ 5
"O[C@H](Cn1ccnc1)Cn1cc2c(n1)CCc1c-2sc2ncnc(Nc3ccc(OCc4cccc(F)c4)c(Cl)c3)c12 [Example 141, (2R)-1-[6-({3-chloro-4-[(3-fluorobenzyl)oxy]phenyl}amino)-4,5-dihydro-2H-pyrimido[5′,4′:4,5]thieno[2,3-e]indazol-2-yl]-3-(1H-imidazol-1-yl)propan-2-ol trifluoroacetate (salt)]",≤ 1,≤ 50
"Fc1cccc(Cn2ncc3cc(Nc4ncnc5sc6c(c45)CCc4nn(CCn5ccnc5)cc4-6)ccc32)c1 [Example 279, N-[1-(3-fluorobenzyl)-1H-indazol-5-yl]-2-[2-(1H-imidazol-1-yl)ethyl]-4,5-dihydro-2H-pyrimido[5′,4′:4,5]thieno[2,3-e]indazol-6-amine]",≤ 1,≤ 5
"NC[C@@H](O)Cn1ncc2c1CCc1c-2sc2ncnc(Nc3ccc(OCc4cccc(F)c4)c(Cl)c3)c12 [Example 162, (2R)-1-amino-3-[6-({3-chloro-4-[(3-fluorobenzyl)oxy]phenyl}amino)-4,5-dihydro-3H-pyrimido[5′,4′:4,5]thieno[2,3-e]indazol-3-yl]propan-2-ol trifluoroacetate (salt)]",≤ 5,≤ 50
"CCN1CCN(CCn2cc3c(n2)CCc2c-3sc3ncnc(Nc4ccc(F)c(Cl)c4)c23)CC1 [Example 36, N-(3-chloro-4-fluorophenyl)-2-[2-(4-ethylpiperazin-1-yl)ethyl]-4,5-dihydro-2H-pyrimido[5′,4′:4,5]thieno[2,3-e]indazol-6-amine]",≤ 5,≤ 5
"c1ccc(Cn2ncc3cc(Nc4ncnc5sc6c(c45)CCc4n[nH]cc4-6)ccc32)cc1 [Example 309, N-(1-benzyl-1H-indazol-5-yl)-4,5-dihydro-2H-pyrimido[5′,4′:4,5]thieno[2,3-e]indazol-6-amine]",≤ 1,≤ 5
"CN1CCN(CCn2cc3c(n2)CCc2c-3sc3ncnc(Nc4ccc(Cl)c(Cl)c4)c23)CC1 [Example 45, N-(3,4-dichlorophenyl)-2-[2-(4-methylpiperazin-1-yl)ethyl]-4,5-dihydro-2H-pyrimido[5′,4′:4,5]thieno[2,3-e]indazol-6-amine]",≤ 1,≤ 5
"CCN(CC)C[C@@H](O)Cn1cc2c(n1)CCc1c-2sc2ncnc(Nc3ccc(OCc4cccc(F)c4)c(Cl)c3)c12 [Example 158, (2R)-1-[6-({3-chloro-4-[(3-fluorobenzyl)oxy]phenyl}amino)-4,5-dihydro-2H-pyrimido[5′,4′:4,5]thieno[2,3-e]indazol-2-yl]-3-(diethylamino)propan-2-ol trifluoroacetate (salt)]",≤ 5,≤ 50
"CN(C)C1CCN(CCn2ncc3c2CCc2c-3sc3ncnc(Nc4ccc5c(cnn5Cc5cccc(F)c5)c4)c23)C1 (centres unmarked) [Example 293, 3-{2-[3-(dimethylamino)pyrrolidin-1-yl]ethyl}-N-[1-(3-fluorobenzyl)-1H-indazol-5-yl]-4,5-dihydro-3H-pyrimido[5′,4′:4,5]thieno[2,3-e]indazol-6-amine]",≤ 1,≤ 50
"CN1CCN(CCn2cc3c(n2)CCc2c-3sc3ncnc(Nc4ccc(OCc5ccc(F)cc5)c(Cl)c4)c23)CC1 [Example 326, N-{3-chloro-4-[(4-fluorobenzyl)oxy]phenyl}-2-[2-(4-methylpiperazin-1-yl)ethyl]-4,5-dihydro-2H-pyrimido[5′,4′:4,5]thieno[2,3-e]indazol-6-amine]",≤ 5,≤ 5

# Next, values leading:
IC50 [1] [µM],IC50 [2] [µM],Structure (SMILES)
≤ 1,≤ 5,"COCCN(CCOC)CCn1cc2c(n1)CCc1c-2sc2ncnc(Nc3ccc4c(cnn4Cc4cccc(F)c4)c3)c12 [Example 285, 2-{2-[bis(2-methoxyethyl)amino]ethyl}-N-[1-(3-fluorobenzyl)-1H-indazol-5-yl]-4,5-dihydro-2H-pyrimido[5′,4′:4,5]thieno[2,3-e]indazol-6-amine]"
≤ 1,≤ 50,"CCOC(=O)N1CCN(C(=O)Cn2ncc3c2CCc2c-3sc3ncnc(Nc4ccc(OCc5cccc(F)c5)c(Cl)c4)c23)CC1 [Example 198, ethyl 4-{[6-({3-chloro-4-[(3-fluorobenzyl)oxy]phenyl}amino)-4,5-dihydro-3H-pyrimido[5′,4′:4,5]thieno[2,3-e]indazol-3-yl]acetyl}piperazine-1-carboxylate]"
≤ 1,≤ 5,"CCN1CCN(CCn2cc3c(n2)CCc2c-3sc3ncnc(Nc4ccc(OCc5cccc(F)c5)c(Cl)c4)c23)CC1 [Example 121, N-{3-chloro-4-[(3-fluorobenzyl)oxy]phenyl}-2-[2-(4-ethylpiperazin-1-yl)ethyl]-4,5-dihydro-2H-pyrimido[5′,4′:4,5]thieno[2,3-e]indazol-6-amine]"
≤ 1,≤ 5,"COCCN1CCN(C(=O)Cn2cc3c(n2)CCc2c-3sc3ncnc(Nc4ccc(OCc5cccc(F)c5)c(Cl)c4)c23)CC1 [Example 186, N-{3-chloro-4-[(3-fluorobenzyl)oxy]phenyl}-2-{2-[4-(2-methoxyethyl)piperazin-1-yl]-2-oxoethyl}-4,5-dihydro-2H-pyrimido[5′,4′:4,5]thieno[2,3-e]indazol-6-amine]"
≤ 1,≤ 50,"Clc1cc(Nc2ncnc3sc4c(c23)CCc2nn(CCN3CCOCC3)cc2-4)ccc1OCc1ccccc1 [Example 126, N-[4-(benzyloxy)-3-chlorophenyl]-2-(2-morpholin-4-ylethyl)-4,5-dihydro-2H-pyrimido[5′,4′:4,5]thieno[2,3-e]indazol-6-amine]"
≤ 1,≤ 5,"CN(C)C1CCN(CCn2cc3c(n2)CCc2c-3sc3ncnc(Nc4ccc5c(cnn5Cc5cccc(F)c5)c4)c23)C1 (centres unmarked) [Example 282, 2-{2-[3-(dimethylamino)pyrrolidin-1-yl]ethyl}-N-[1-(3-fluorobenzyl)-1H-indazol-5-yl]-4,5-dihydro-2H-pyrimido[5′,4′:4,5]thieno[2,3-e]indazol-6-amine]"
≤ 1,≤ 5,"CS(=O)(=O)OCCn1ncc2c1CCc1c-2sc2ncnc(Nc3ccc(OCc4cccc(F)c4)c(Cl)c3)c12 [Example 258, 2-[6-({3-chloro-4-[(3-fluorobenzyl)oxy]phenyl}amino)-4,5-dihydro-3H-pyrimido[5′,4′:4,5]thieno[2,3-e]indazol-3-yl]ethyl methanesulfonate]"
≤ 1,≤ 5,"CN(C)CCn1cc2c(n1)CCc1c-2sc2ncnc(Nc3ccc(OCc4cccc(F)c4)c(Cl)c3)c12 [Example 73, N-{3-chloro-4-[(3-fluorobenzyl)oxy]phenyl}-2-[2-(dimethylamino)ethyl]-4,5-dihydro-2H-pyrimido[5′,4′:4,5]thieno[2,3-e]indazol-6-amine]"
≤ 1,≤ 50,"OCCN(CCO)CCn1ncc2c1CCc1c-2sc2ncnc(Nc3ccc(OCc4cccc(F)c4)c(Cl)c3)c12 [Example 262, 2,2′-({2-[6-({3-chloro-4-[(3-fluorobenzyl)oxy]phenyl}amino)-4,5-dihydro-3H-pyrimido[5′,4′:4,5]thieno[2,3-e]indazol-3-yl]ethyl}imino)diethanol]"
